{"source": "patent US20030096311A1", "about": "“Screening method for compounds” (priority 2000, published 2003)", "key": {"IFN-γ [1]": {"biological_target": "T1, IFN-γ (Homo sapiens, UniProt P01579)", "T1 sequence (P01579 24-161 limits assumed)": "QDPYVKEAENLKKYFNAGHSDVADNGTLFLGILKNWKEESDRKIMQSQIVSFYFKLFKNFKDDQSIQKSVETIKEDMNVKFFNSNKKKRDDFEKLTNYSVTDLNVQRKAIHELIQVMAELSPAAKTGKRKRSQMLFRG", "assay": "ELISA detection of IFN-γ after overnight cell-free incubation with BP", "type": "binding", "settings": "overnight with BP 500 μg/ml", "description": "The generation of PBMC supernatants and RNA used for this method were prepared as follows. PBMC ([…]) were incubated in RPMI-1640 medium containing TCH (ICN) with or without PHA (Sigma, 2.5 μg/ml). At each time point, samples were centrifuged for 5 min at 400 g, the supernatants collected and analyzed of IFN-γ by ELISA (IDS, Boldon, UK).\nPurified recombinant IFN-γ or cell-free supernatants from stimulated PBMC were incubated overnight with BP (500 μg/ml), then assayed by ELISA, Supernatant 1, PBMC stimulated for 20 hours with IL-2; supernatant 2, PBMC stimulated for 43 hours with IL-2; supernatant 3, PBMC stimulated for 43 hours with PHA."}, "IL-4": {"biological_target": "T2, IL-4 (Homo sapiens, UniProt P05112)", "T2 sequence (P05112 25-153)": "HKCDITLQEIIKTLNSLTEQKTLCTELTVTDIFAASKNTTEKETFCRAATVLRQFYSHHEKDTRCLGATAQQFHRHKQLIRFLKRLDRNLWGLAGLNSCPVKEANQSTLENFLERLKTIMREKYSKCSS", "assay": "Western blot with anti-BP antibody: comparative study with IL-4", "type": "binding", "settings": "IL-4 in place of IFN-γ; compared with IFN-γ", "description": "(§1) SDS-PAGE and Western Blotting techniques using for this method were performed as follows. Carrier-free recombinant human IFN-γ (PeproTech, London, UK) was made to 10 μg/ml and incubated overnight with or without BP (final concentrations 25, 5, 0.5 mg/ml). At the end of the incubation period, 5×loading buffer was added and 20 μl of each sample loaded onto SDS-polyacrylamide gels. The gels were then analyzed by Western blotting, using a rabbit polyclonal anti-BP antibody. A comparative study was conducted using IL-4 in place of IFN-γ.\n(§2) Carrier-free recombinant human IFN-γ (PeproTech, London, UK) were made to 10 μg/ml and incubated overnight with or without Benzyl Penicillin (BP) (final concentrations: 25, 5, 0.5 mg/ml). At the end of the incubation period, 5×loading buffer was added and 20 μl of each sample loaded onto SDS-polyacrylamide gels. For all samples, aliquots were then analyzed by Western blotting, using a rabbit polyclonal anti-BP antibody. A comparative study was conducted using IL-4 in place of IFN-γ."}, "IFN-γ [2]": {"biological_target": "T3, IFN-γ (Homo sapiens, UniProt P01579)", "T3 sequence (P01579 24-166)": "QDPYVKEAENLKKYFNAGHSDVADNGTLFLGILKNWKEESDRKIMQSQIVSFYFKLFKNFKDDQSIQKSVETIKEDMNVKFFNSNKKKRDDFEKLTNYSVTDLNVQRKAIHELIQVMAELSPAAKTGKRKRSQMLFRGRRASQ", "assay": "IFN-γ induction of MHC class II DR on peripheral blood monocytes after BP pre-incubation", "type": "cell-based", "settings": "IFN-γ 1 μg/ml pre-incubated overnight with various concentrations of BP; HMC-1 pulsed, co-cultured with PBM", "description": "Referring now to FIG. 2, there is shown a graph illustrating the results of a determination of whether the effect of conjugation or interaction of the substance, BP, with IFN-γ has an effect on IFN-γ activity. In summary, IFN-γ was tested for induction of MHC class II DR on human peripheral blood monocytes (PBM) as follows.\nIFN-γ (1 μg/ml) was incubated overnight with various concentrations of BP. HMC-1 cells were pulsed with or without IFN-γ (10 ng/ml), BP, or BP-treated IFN-γ, for 30 min and washed 3 times in PBS. The cells were resuspended in IFS and co-cultured (2×10^5) overnight with PBM (2×10^5) in a total volume of 200 μl in polypropylene tubes (Falcon). Six tubes were set up for each HMC-1 treatment."}, "IFN-γ [3]": {"biological_target": "T3, IFN-γ", "assay": "IFN-γ mediated up-regulation of MCP-1 mRNA in A549 cells (RNase protection)", "type": "cell-based"}, "IFN-γ [4]": {"biological_target": "T3, IFN-γ", "assay": "Western blot with anti-BP antibody: conjugation of BP to IFN-γ", "type": "binding", "design": "purchased PeproTech, London, UK", "settings": "IFN-γ 10 μg/ml overnight with BP 25, 5, 0.5 mg/ml", "description": "as §1\nReferring now to FIG. 1, there is shown a Western blot illustrating the conjugation of BP to or interaction of BP to IFN-γ. FIG. 1 illustrates a method by which conjugation or interaction of a substance with a cytokine, namely IFN-γ, can be determined.\nas §2"}}, "data": [{"compound": "CC1(C)S[C@@H]2[C@H](NC(=O)Cc3ccccc3)C(=O)N2[C@H]1C(=O)O", "note": "[BP, benzyl penicillin]", "values": [{"measurement": "IFN-γ (pg/ml) detected with BP", "setting": "IFN-γ [1]; PBMC supernatant 1 (IL-2, 20 hours), without BP 152", "result": 0, "unit": "pg/mL"}, {"measurement": "IFN-γ (pg/ml) detected with BP", "setting": "IFN-γ [1]; PBMC supernatant 2 (IL-2, 43 hours), without BP 389", "result": 0, "unit": "pg/mL"}, {"measurement": "IFN-γ (pg/ml) detected with BP", "setting": "IFN-γ [1]; PBMC supernatant 3 (PHA, 43 hours), without BP >400", "result": 92, "unit": "pg/mL"}, {"measurement": "IFN-γ (pg/ml) detected with BP", "setting": "IFN-γ [1]; recombinant IFN-γ 200 pg/ml, without BP 192", "result": 13, "unit": "pg/mL"}, {"measurement": "IFN-γ (pg/ml) detected with BP", "setting": "IFN-γ [1]; recombinant IFN-γ 1000 pg/ml, without BP 1015", "result": 70, "unit": "pg/mL"}, {"measurement": "conjugation to IL-4", "setting": "IL-4", "result": "conjugates to IL-4, though to a substantially lesser degree than to IFN-γ"}, {"measurement": "IFN-γ bioactivity (increase in DR median fluorescence on PBM)", "setting": "IFN-γ [2]", "result": "reduced its bioactivity in a concentration dependent manner"}, {"measurement": "induction of MCP-1 mRNA by IFN-γ", "setting": "IFN-γ [3]; BP mixed with IFN-γ immediately before addition to A549 cells, lanes 10-12", "result": "less marked inhibiting effect"}, {"measurement": "induction of MCP-1 mRNA by IFN-γ", "setting": "IFN-γ [3]; IFN-γ pre-incubated overnight with BP (20 or 10 mg/ml), A549 cells, 2 hours, lanes 4-6", "result": "inhibited induction of MCP-1 mRNA"}, {"measurement": "conjugation to IFN-γ", "setting": "IFN-γ [4]", "result": "conjugates to IFN-γ"}]}]}
